Source: article PMC8274846, “Biogenic nanoporous silicon carrier improves the efficacy of buparvaquone against resistant visceral leishmaniasis” (PLoS Neglected Tropical Diseases, 2021)

Experiments:
[1] = tested on: L.donovani; design: method as in PMID 25936561; settings: L.donovani infection; cited from earlier work
[2] = tested on: axenic L.donovani amastigotes, AG83-R, PMM (PMM resistant strain generated from AG83); test: microbe, parasite or virus in culture; assay type: cell-based; settings: for Resistance index (RI), AG83-R, PMM: IC50 against drug resistant strain / IC50 against wild-type strain (AG83), axenic
Experimental: (§1) L. donovani AG83 (MHOM/IN/83/AG83) and GE1 (MHOM/IN/80/GE1F8R) promastigotes were routinely grown in medium 199 supplemented with 10% heat-inactivated fetal bovine serum, 2 mM L-glutamine, 20 mM HEPES, 100 U/mL penicillin, and 100 μg/mL streptomycin at 25°C. L. donovani amastigote forms were grown and maintained as described previously. Axenic amastigote forms were derived from promastigote forms by culturing them in MMA/20 (medium for axenic amastigote) at pH 5.5 [22]. Axenically grown amastigotes were maintained by sub-culture of 10^5 parasites/ml repeated every fifth day under experimental conditions of 37°C temperature and 5% CO2 environment.
(§2) SSG and PMM resistant L. donovani amastigotes were generated by using the methods described previously. […] The cultures were stabilized for three subcultures. Then, the drug concentration was increased until the cell population decreased approximately to 20% for each batch. Finally, when 90% cell population of the initial count was reduced, the phenotype generated was plated on medium 199 agar plates containing the same drug concentration, and a single colony was picked for culture in medium 199 liquid media at the same drug concentration. The cultured promastigotes are converted into amastigotes as described above. Drug pressure was withdrawn, and stability was checked at one, two, and four months. SSG and PMM resistant phenotype clones were labeled as AG83-R,SSG and AG83-R, PMM, respectively.
(§3) The antileishmanial activity of the drug specimens (BPQ+NP, BPQ, SSG, AmB, PMM, and MF) against the axenic amastigotes were evaluated based on the IC50 value, which is the concentration of the specimen required to kill 50% of the parasites. The parasites were first seeded into 96-well plates at a density of 1x10^5 amastigotes/well in 200 μL medium. Then, 10 μL of the drug candidates at various concentrations were added and the final volume was adjusted to […] medium. The number of amastigotes in the wells treated with each specimen were compared to those in the untreated control wells.
(§4) Microscopic examinations were performed in duplicates with various concentrations of pure drugs or buparvaquone-loaded nanoparticles and also for control wells. The amastigotes cells were counted for all cases using a hemocytometer. The mean of the control wells was considered as 100% survival. The counts in the treated wells at various concentrations were converted into percentages. Giemsa-stained slides of the macrophages infected with amastigotes were observed under a light microscope. Then the numbers of amastigotes and infected macrophages per 100 cells were counted for each slide. The percentage (%) of inhibition was calculated by using the equation %ofinhibition=C−T/C×100, (2) where C is the number of amastigotes/infected macrophages per 100 cells in the control well and T is the number of amastigotes/infected macrophages per 100 cells in the drug-treated well.
(§5) Origin version 6.1 software was used to calculate IC50 and CC50 values by plotting a graph of the percentage of inhibition at various concentrations of all the observations.

[3] = tested on: axenic L.donovani amastigotes, AG83-R, SSG (SSG resistant strain generated from AG83); test: microbe, parasite or virus in culture; assay type: cell-based; settings: for Resistance index (RI), AG83-R, SSG: IC50 against drug resistant strain / IC50 against wild-type strain (AG83), axenic
Experimental: as §1, §2, §3, §4, §5

[4] = tested on: wild-type AG83 promastigotes; test: IC50 against wild-type AG83 promastigotes (used for generation of resistant strains); assay type: cell-based, L. donovani; settings: medium 199
Experimental: as §2

[5] = tested on: intracellular L.donovani amastigotes, wild-type AG83, in macrophages; test: Antileishmanial activity against intracellular amastigotes, wild-type AG83; assay type: cell-based; settings: for Selectivity index (SI), AG83: CC50/IC50, intracellular
Experimental: (§6) The intracellular antileishmanial activity was evaluated based on the reduction in the amastigote numbers in the infected macrophages after the treatment. The method was adapted from our previous work. Briefly, 4x10^6 amastigotes in 500 μL of RPMI-1640 suspension were added to each well containing macrophages with the macrophage: parasite ratio of 1:10. The plates were incubated for 4 h at 37°C in 5% CO2. After the parasite internalization period, cells were washed at least twice with fresh media to remove non-phagocytosed parasites. Then, the drug specimen suspended in 1 mL RPMI-1640 was added, and the samples were incubated for 72 h at 37°C in 5% CO2. The medium was aspirated, the coverslips were removed, and then fixed with methanol and air-dried. After staining with Giemsa, 100 cells on the glass discs were counted. Three independent experiments in quadruplicate for each concentration were performed.
as §4, §5

[6] = tested on: axenic L.donovani amastigotes, wild-type AG83; test: Antileishmanial activity against axenic amastigotes, wild-type AG83; assay type: cell-based; settings: axenic amastigotes, mean ± σ, n = 4
Experimental: as §1, §3, §4, §5

[7] = tested on: resident peritoneal macrophages; test: Cytotoxicity studies (CC50) on peritoneal macrophages; assay type: cell-based, BALB/c mice; settings: 48 h exposure, values for SSG given in μg/ml
Experimental: (§7) Resident peritoneal macrophages were isolated from BALB/c mice. For the isolation, 1.5 mL of sterile thioglycolate medium was injected into the peritoneal cavity to induce non-infectious inflammation. Animals were sacrificed after 5 days, and peritoneal exudates were harvested by intraperitoneal lavage. Cold RPMI (6 mL) was injected into the peritoneal cavity. After 10 min, the injected fluid was withdrawn by the same syringe. From each animal, approximately 3-4 mL of medium was recovered. After centrifugation at 200 g for 15 min, macrophages were collected. […] The cytotoxicity of the drug specimen was evaluated by the CC50 value, which is the concentration required to kill 50% of the host cell population. Macrophages were first isolated from peritoneal lavage as described above. The cells were seeded into 96-well plates at 1x10^6 cells/mL in 200 μL of RPMI-1640 supplemented with 10% FCS, 20 mM L-glutamine, 16 mM NaHCO3, penicillin (50 U/mL) and streptomycin (50 μg/ mL) at 37°C in 5% CO2 for 4 h for adherence. To remove the non-adherent cells, each plate was washed two times with phosphate buffer saline (pH 7.2). […] Microscopic examinations were performed in duplicates with various concentrations of pure drugs or buparvaquone-loaded nanoparticles and also for control wells. The amastigotes cells were counted for all cases using a hemocytometer. The mean of the control wells was considered as 100% survival. The counts in the treated wells at various concentrations were converted into percentages. Giemsa-stained slides of the macrophages infected with amastigotes were observed under a light microscope. Then the numbers of amastigotes and infected macrophages per 100 cells were counted for each slide. The percentage (%) of inhibition was calculated by using the equation %[…]×100, (2) where C is the number of amastigotes/infected macrophages per 100 cells in the control well and T is the number of amastigotes/infected macrophages per 100 cells in the drug-treated well.

[8] = tested on: axenic L.donovani amastigotes, GE1 (isolated strain resistant to SSG); test: Antileishmanial activity against axenic amastigotes, GE1; assay type: cell-based; settings: for Resistance index (RI), GE1: IC50 against drug resistant strain / IC50 against wild-type strain (AG83), axenic
Experimental: as §1, §3, §4, §5

[9] = tested on: intracellular L.donovani amastigotes, AG83-R, PMM, in macrophages; test: microbe, parasite or virus in culture; assay type: cell-based; settings: for Selectivity index (SI), AG83-R, PMM: CC50/IC50, intracellular
Experimental: as §2, §6, §4, §5

[10] = tested on: intracellular L.donovani amastigotes, AG83-R, SSG, in macrophages; test: microbe, parasite or virus in culture; assay type: cell-based; settings: for Selectivity index (SI), AG83-R, SSG: CC50/IC50, intracellular
Experimental: as §2, §6, §4, §5

[11] = tested on: intracellular L.donovani amastigotes, GE1, in macrophages; test: Antileishmanial activity against intracellular amastigotes, GE1; assay type: cell-based; settings: for Selectivity index (SI), GE1: CC50/IC50, intracellular
Experimental: as §6, §4, §5

[12] = Cytotoxicity studies (CC50) on peritoneal macrophages; assay type: cell-based, BALB/c mice; settings: BALB/c, mouse, resident peritoneal macrophages, 48 h exposure, mean ± σ, n = 3
Experimental: as §7

[13] = axenic amastigotes, values for SSG given in μg/ml, mean ± σ, n = 4
[14] = intracellular amastigotes, 72 h, values for SSG given in μg/ml

**Q.** Which “Reduction of parasite burdens (liver and spleen)” value [1] does the source give for `C[C@@H]1CC[C@H]2[C@@H](C)C(=O)O[C@@H]3O[C@@]4(C)CC[C@@H]1[C@]32OO4` [artemisinin] here?
**A.** The value was ~ 50%.

**Q.** What does the source list for `O.O.O.O.O.O.O.O.O.O=C([O-])[C@@H]1[O][Sb](=[O])([O][Sb]2(=[O])[O][C@H]([C@H](O)CO)[C@H](O)[C@H](C(=O)[O-])[O]2)[O][C@H]([C@H](O)CO)[C@@H]1O.[Na+].[Na+].[Na+]` (some centres unmarked) [SSG, sodium stibogluconate]?
**A.** Resistance index (RI), AG83-R, PMM [2]: 32 ± 3; Axenic IC50, AG83-R, PMM [2, 13]: 113 ± 15 µg/mL; Resistance index (RI), AG83-R, SSG [3]: 38 ± 4; Axenic IC50, AG83-R, SSG [3, 13]: 133 ± 15 µg/mL; IC50 against the parasite [4]: 3.6 µg/mL; Selectivity index (SI), AG83 [5]: 15 ± 4; Cellular IC50, Wild-type AG83 [5, 14]: 1.8 ± 0.2 µg/mL; Axenic IC50, Wild-type AG83 ([6]; values for SSG given in μg/ml): 3.5 ± 0.7 µg/mL; CC50 [7]: 27 ± 2 µg/mL; Resistance index (RI), GE1 [8]: 4 ± 1; Axenic IC50, GE1 [8, 13]: 14 ± 2 µg/mL; Selectivity index (SI), AG83-R, PMM [9]: 2 ± 1; Cellular IC50, AG83-R, PMM [9, 14]: 20 ± 2 µg/mL; Selectivity index (SI), AG83-R, SSG [10]: 1 ± 1; Cellular IC50, AG83-R, SSG [10, 14]: 22 ± 2 µg/mL; Selectivity index (SI), GE1 [11]: 4 ± 2; Cellular IC50, GE1 [11, 14]: 7.5 ± 0.3 µg/mL

**Q.** With `CCCCCCCCCCCCCCCCOP(=O)([O-])OCC[N+](C)(C)C` [MF, miltefosine] as the compound, how does the “Resistance index (RI), AG83-R, PMM” value [2] read?
**A.** Its value is 1.1 ± 0.2.

**Q.** And the “Resistance index (RI), AG83-R, SSG” value [3]?
**A.** The value was 1.3 ± 0.2.

**Q.** What about the IC50 ([3]; Leishmania donovani, read-out: Axenic IC50, AG83-R, SSG) of the same compound?
**A.** Its IC50 is 600 ± 100 nM.

**Q.** And the “Selectivity index (SI), AG83” value [5]?
**A.** Its value is 100 ± 10.

**Q.** And the IC50 ([5]; Leishmania donovani, Macrophage, intracellular amastigotes, 72 h, mean ± σ, n = 4, read-out: Cellular IC50, Wild-type AG83)?
**A.** Its IC50 is 400 ± 100 nM.

**Q.** What about the IC50 ([6]; Leishmania donovani) of the same compound?
**A.** The IC50 was 500 ± 100 nM.

**Q.** What about the CC50 at 48 h [12] of the same compound?
**A.** Its CC50 at 48 h is 36000 ± 4000 nM.

**Q.** What about the “Resistance index (RI), GE1” value [8] of the same compound?
**A.** The value was 1.1 ± 0.3.

**Q.** And the IC50 ([8]; Leishmania donovani, axenic amastigotes, mean ± σ, n = 4)?
**A.** The IC50 was 500 ± 100 nM.

**Q.** What about the “Selectivity index (SI), AG83-R, PMM” value [9] of the same compound?
**A.** The value was 70 ± 10.

**Q.** And the “Selectivity index (SI), AG83-R, SSG” value [10]?
**A.** Its value is 60 ± 5.

**Q.** What about the IC50 ([10]; Leishmania donovani, Macrophage, 72 h, read-out: Cellular IC50, AG83-R, SSG) of the same compound?
**A.** Its IC50 is 700 ± 100 nM.

**Q.** And the “Selectivity index (SI), GE1” value [11]?
**A.** Its value is 80 ± 10.

**Q.** And the IC50 ([11]; Leishmania donovani, Macrophage, intracellular amastigotes, 72 h, mean ± σ, n = 4, read-out: Cellular IC50, GE1)?
**A.** Its IC50 is 500 ± 100 nM.
